Patent US20120245099A1, “APOPTOSIS INDUCER” (NIHON UNIVERSITY, priority 2009, published 2012)

What was measured:
Cos cells [1] = experiment: LDH activity in supernatant of Cos cells transformed with E3, E3 mutants or F IX EGF domain (Example 9); assay type: cell-based; conditions: APtag4 vector, medium replaced 4 hours after gene transfer, measured after further 24 hours
From the text: cDNA for E3 (a part of Del-1) or an amino acid substitution mutant thereof was integrated into an AP expression vector (APtag4) and then introduced into cultured Cos cells. Likewise, cDNA for the EGF domain of blood coagulation factor IX (F IX; cDNA: SEQ ID NO: 24, amino acid sequence: SEQ ID NO: 25) was also integrated into APtag4 and then introduced into cultured Cos cells. As a control, an AP expression vector free from the above cDNAs for E3 and so on was used. It should be noted that the amino acid substitution mutants of E3 used for the above purpose were E3 D136E (cDNA: SEQ ID NO: 34, amino acid sequence: SEQ ID NO: 35), E3 D136N (cDNA: SEQ ID NO: 36, amino acid sequence: SEQ ID NO: 37) and E3 Y141F (cDNA: SEQ ID NO: 38, amino acid sequence: SEQ ID NO: 39). […] At 4 hours after gene transfer, the medium in each case was replaced with fresh culture medium and, after further 24 hours, the supernatant was measured for LDH activity. A cell lysate was prepared for each case and measured for LacZ activity. […]

Cos cells [2] = experiment: Concentration dependence of recombinant E3 protein, LDH activity in culture supernatant (Example 10); assay type: cell-based; conditions: 24 hours after addition
Description: A recombinant E3 protein produced from transformed E. coli was added at different concentrations (0 to 2.0 ng/ml) to cultured Cos cells. At 24 hours after addition, the culture supernatants were each measured for LDH activity.

[3] = system: CRL cells (human melanoma cells); experiment: Recombinant E3 protein added to cells, LDH activity in culture supernatant (Example 11); assay type: cell-based; conditions: CRL cells (adherent), 1 ng/ml or 5 ng/ml, 24 hours after addition
[4] = system: P5 cells (vascular endothelial cell line); experiment: as above; assay type: cell-based; conditions: P5 cells (adherent), 1 ng/ml or 5 ng/ml, 24 hours after addition
Cos cells [5] = experiment: Recombinant E3 protein added to cultured Cos cells, H33342 staining (Example 8); assay type: cell-based; conditions: recombinant protein from E. coli, 24 hours after addition
Description: To cultured Cos cells, a recombinant E3 protein produced from transformed E. coli was added. At 24 hours after addition, the cells were stained with H33342 and observed under a phase contrast microscope and a fluorescent microscope.

[6] = system: MEL cells (mouse leukemia cells); experiment: Recombinant E3 protein added to cells, LDH activity in culture supernatant (Example 11); assay type: cell-based; conditions: MEL cells (floating), 1 ng/ml or 5 ng/ml, 24 hours after addition
Cos cells [7] = experiment: LDH activity in supernatant of Cos cells transformed with cDNA for Del-1 or its parts (Example 7); assay type: cell-based; conditions: APtag4 vector, medium replaced 24 hours after gene transfer, measured after further one hour
From the text: cDNA for full-length Del-1 (SEQ ID NO: 4) was integrated into an AP expression vector (APtag4) and then introduced into cultured Cos cells. Likewise, cDNA for a part of Del-1 was also integrated into APtag4 and then introduced into cultured Cos cells. As a control, an AP expression vector free from the above cDNA for full-length Del-1 or a part thereof was used. It should be noted that the members each used as a part of Del-1 were EGF-like domains in the full-length Del-1 protein, i.e., EGF1 (E1; cDNA: SEQ ID NO: 26, amino acid sequence: SEQ ID NO: 27), EGF2 (E2; cDNA: SEQ ID NO: 28, amino acid sequence: SEQ ID NO: 29) and EGF3 (E3; cDNA: SEQ ID NO: 6, amino acid sequence: SEQ ID NO: 7), a fusion protein between discoidin I-like domains, i.e., Discoidin1 and Discoidin2 (C1C2; cDNA: SEQ ID NO: 30, amino acid sequence: SEQ ID NO: 31), an amino acid substitution (D136E) mutant of the above full-length Del-1 (Del1m; cDNA: SEQ ID NO: 32, amino acid sequence: SEQ ID NO: 33), as well as an amino acid substitution (D136E) mutant of E3, i.e., E3 D136E (E3m; cDNA: SEQ ID NO: 34, amino acid sequence: SEQ ID NO: 35). […] At 24 hours after gene transfer, the medium in each case was replaced with fresh culture medium and, after further one hour, the supernatant was measured for LDH activity. A cell lysate was prepared for each case and measured for LacZ activity. […]

[8] = system: SCCKN cells (human oral squamous cell carcinoma-derived cell line); experiment: Tumor-transplanted model mice, intratumoral gene transfer, tumor size over time (Example 12); assay type: in vivo; conditions: nude mice with SCCKN tumors, 10 μg DNA, Day0 to Day7
Description: For measurement of tumor size, the long axis and short axis of each tumor were measured with a ruler and multiplied by each other. In the figure, the tumor size (vertical axis) is expressed as a relative value (mean±SD), assuming that the value obtained at the time of gene transfer is set to 1.
Using tumor-transplanted model mice, a peptide containing the EGF3 domain, which is a part of Del-1, was studied for its therapeutic effect on tumor. More specifically, this peptide was verified as to whether its combined use with the FasL (Fas ligand) protein, whose antitumor effect has already been established, would enhance the antitumor effect when compared to FasL alone. […]
Then, 5×10^6 SCCKN cells (human oral squamous cell carcinoma-derived cell line) were injected under the dorsal skin of nude mice at 5 weeks of age. The mice were then measured over time for their tumor size. […]
The tumor size after gene transfer was measured over time (for 7 days: Day0 to Day7), and the results obtained are shown in FIG. 12.

Question: Which results are given for “E3: EGF3 EGF-like domain of Del-1, amino acids 123-157, SEQ ID NO: 7 (CEAEPCRNGGICTDLVANYSCECPGEFMGRNCQYK; listed as Mus musculus)”?
Answer: LDH activity of supernatant, normalized by LacZ activity (Cos cells [1]): high LDH activity; E3 protein concentration effective for apoptosis induction (LDH activity) (Cos cells [2]; 0 to 2.0 ng/ml): ≥ 0.4 ng/mL; E3 protein concentration above which the effect on apoptosis induction remained unchanged (Cos cells [2]): higher than 1 ng/ml; cytotoxic activity (apoptosis induction), LDH activity [3]: showed cytotoxic activity; cytotoxic activity (apoptosis induction), LDH activity [4]: showed cytotoxic activity; chromosome aggregation (H33342 nuclear staining) (Cos cells [5]): chromosomes were aggregated; cytotoxic activity, LDH activity [6]: no cytotoxic activity

Question: Which “increase in LDH activity of supernatant, normalized by LacZ activity” value (Cos cells [7]) does the source give for “E3m: amino acid substitution (D136E) mutant of E3, SEQ ID NO: 35 (CEAEPCRNGGICTELVANYSCECPGEFMGRNCQYK; listed as Mus musculus)” here?
Answer: lost

Question: With “F IX: EGF domain of blood coagulation factor IX, SEQ ID NO: 25 (CESNPCLNGGICKDDISSYECWCQVGFEGRNCEL; listed as Mus musculus)” as the molecule, how does the “LDH activity of supernatant, normalized by LacZ activity” value (Cos cells [1]) read?
Answer: high LDH activity

B1: E3C1: fusion peptide between EGF3 domain and Discoidin1, amino acids 123 to 319 of mouse Del-1, SEQ ID NO: 42 (protein, listed as Mus musculus)
chain: CEAEPCRNGGICTDLVANYSCECPGEFMGRNCQYKCSGPLGIEGGIISNQQITASSTHRALFGLRKWYPYYARLNKKGLINAWTAAENDRWPWIQINLQRKMRVTGVITQGAKRIGSPEYIKSYKIAYSNDGKTWAMYKVKGTNEEMVFRGNVDNNTPYANSFTPPIKAQYVRLYPQICRRHCTLRMELLGCELSGC
Question: For B1, which “antitumor effect (tumor size) of E3C1 cDNA together with FasL cDNA compared with FasL alone” value [8] is on record?
Answer: higher antitumor effect
